Measurements reported in patent publication US8993574B2, “Pyrrole antifungal agents” (F2G Ltd, priority 2008, dated 2015).
≈ marks a conversion by molar mass, not a printed value.

Key:
Format in all cases: cell-based
[1] = test system: Aspergillus fumigatus AF210; assay: MIC, RPMI medium; conditions: Aspergillus fumigatus, AF210, MIC banded into grades, read-out: MIC grade, A. fumigatus 210
Experimental: (§1) Between 1 and 5 mgs of compound were accurately weighed out into a sterile Eppendorf tube. The compound was dissolved in DMSO to give a solution containing 5 mg/mL. Tubes were stored at −20° C. until required.
(§2) On the day of testing thawed solutions were vortex mixed to ensure homogeneity. 30 μL of solution was removed and added to 570 μL of sterile water in a separate sterile Eppendorf. The thoroughly mixed solution was used to prepare a series of doubling dilutions in water, in a deep well plate. Thirteen replicate plates were prepared using a Minitrak by aspirating 20 μL from each well into eleven clear polystyrene 96 well plates.
(§3) Assays were also performed in RPMI medium for both Aspergillus spp. (strains described above) and Candida spp. (Candida albicans, Candida glabrata, Candida krusei, Candida parapsilosis and Candida tropicalis). To perform MIC tests in this medium, dilutions of compounds are prepared in microtitre plates as described above. Fungal strains to be tested are grown and harvested in an identical manner to that described above, and each organism suspension was diluted in RPMI medium, containing 2% glucose and 0.135 M MOPS buffer (pH 7.0) to 0.5-2×10^4 cfu/mL, rather than in YAG medium. 80 μL of an organism suspension was added to each well of the plate containing drug dilutions.
(§4) This produced MIC plates with a drug range 50-0.05 mg/L and organism inocula of 1−2×10^4 cfu/mL. All plates were incubated for 24-48 h at 35° C. Growth was assessed by monitoring the optical density at 485 nm for each well. The MIC of a compound is the lowest drug concentration that inhibits growth of an organism by >80% compared with a drug free control.
(§5) The following organisms were tested: Aspergillus flavus, Aspergillus fumigatus AF293 and AF210, Aspergillus niger, Aspergillus terreus AT4 and AT49, Candida albicans, Candida glabrata, Candida krusei, Candida parapsilosis and Candida tropicalis.

[2] = test system: Aspergillus terreus AT4; assay: MIC, RPMI medium; conditions: Aspergillus terreus, AT4, MIC banded into grades, read-out: MIC grade, A. terreus
Experimental: as §1, §2, §3, §4, §5

[3] = test system: Aspergillus terreus AT49; assay: MIC, RPMI medium; conditions: Aspergillus terreus, AT49, MIC banded into grades, read-out: MIC grade, A. terreus 49
Experimental: as §1, §2, §3, §4, §5

[4] = test system: Aspergillus fumigatus AF293; assay: MIC, RPMI medium; conditions: Aspergillus fumigatus, AF293, MIC banded into grades, read-out: MIC grade, A. fumigatus
Experimental: as §1, §2, §3, §4, §5

[5] = test system: Aspergillus flavus; assay: MIC, RPMI medium; conditions: Aspergillus flavus, MIC banded into grades, read-out: MIC grade, A. flavus
Experimental: as §1, §2, §3, §4, §5

[6] = test system: Aspergillus niger; assay: MIC, RPMI medium; conditions: Aspergillus niger, MIC banded into grades, read-out: MIC grade, A. niger
Experimental: as §1, §2, §3, §4, §5

[7] = test system: Aspergillus fumigatus AF210; assay: MIC, YAG medium; conditions: Aspergillus fumigatus, 24 h at 35° C, MIC banded into grades, read-out: MIC grade, A. fumigatus 210
Experimental: as §1, §2
(§6) Spores of Aspergillus spp. (Aspergillus fumigatus [two strains], Aspergillus terreus [two strains], Aspergillus niger and Aspergillus flavus) were harvested from cultures grown on Sabarauds agar for 5 days, and resuspended in PBS/Tween 80 to approx 1×10^7 cfu/mL. Each organism suspension was diluted in YAG medium (1% glucose, 1% ammonium chloride and 0.5% yeast extract) to 0.5−2×10^4 cfu/mL. 80 μL of an organism suspension was added to each well of the plate containing drug dilutions.
as §4, with “cfu/mL for Aspergillus spp.” for “cfu/mL.”, “24” for “24-48”, “>70%” for “>80%”, “control. MICs are recorded as mg/L. In cases where the MIC of an organism is […] mg/L the MIC is repeated using a concentration range of 0.5-0.0005 mg/L.” for “control.”
as §5

[8] = test system: Aspergillus terreus AT4; assay: MIC, YAG medium; conditions: Aspergillus terreus, 24 h at 35° C, MIC banded into grades, read-out: MIC grade, A. terreus
Experimental: as §1, §2, §6
as §4, with “cfu/mL for Aspergillus spp.” for “cfu/mL.”, “24” for “24-48”, “>70%” for “>80%”, “control. MICs are recorded as mg/L. In cases where the MIC of an organism is […] mg/L the MIC is repeated using a concentration range of 0.5-0.0005 mg/L.” for “control.”
as §5

[9] = test system: Aspergillus terreus AT49; assay: MIC, YAG medium; conditions: Aspergillus terreus, 24 h at 35° C, MIC banded into grades, read-out: MIC grade, A. terreus 49
Experimental: as §1, §2, §6
as §4, with “cfu/mL for Aspergillus spp.” for “cfu/mL.”, “24” for “24-48”, “>70%” for “>80%”, “control. MICs are recorded as mg/L. In cases where the MIC of an organism is […] mg/L the MIC is repeated using a concentration range of 0.5-0.0005 mg/L.” for “control.”
as §5

[10] = test system: Aspergillus fumigatus AF293; assay: MIC, YAG medium; conditions: Aspergillus fumigatus, 24 h at 35° C, MIC banded into grades, read-out: MIC grade, A. fumigatus
Experimental: as §1, §2, §6
as §4, with “cfu/mL for Aspergillus spp.” for “cfu/mL.”, “24” for “24-48”, “>70%” for “>80%”, “control. MICs are recorded as mg/L. In cases where the MIC of an organism is […] mg/L the MIC is repeated using a concentration range of 0.5-0.0005 mg/L.” for “control.”
as §5

[11] = test system: Aspergillus flavus; assay: MIC, YAG medium; conditions: Aspergillus flavus, 24 h, 24 h at 35° C, MIC banded into grades, read-out: MIC grade, A. flavus
Experimental: as §1, §2, §6
as §4, with “cfu/mL for Aspergillus spp.” for “cfu/mL.”, “24” for “24-48”, “>70%” for “>80%”, “control. MICs are recorded as mg/L. In cases where the MIC of an organism is […] mg/L the MIC is repeated using a concentration range of 0.5-0.0005 mg/L.” for “control.”
as §5

[12] = test system: Aspergillus niger; assay: MIC, YAG medium; conditions: Aspergillus niger, 24 h at 35° C, MIC banded into grades, read-out: MIC grade, A. niger
Experimental: as §1, §2, §6
as §4, with “cfu/mL for Aspergillus spp.” for “cfu/mL.”, “24” for “24-48”, “>70%” for “>80%”, “control. MICs are recorded as mg/L. In cases where the MIC of an organism is […] mg/L the MIC is repeated using a concentration range of 0.5-0.0005 mg/L.” for “control.”
as §5

| SMILES | MIC [1] [µg/mL] | MIC [2] [µg/mL] | MIC [3] [µg/mL] | MIC [4] [µg/mL] | MIC [5] [µg/mL] | MIC [6] [µg/mL] | MIC [7] [µg/mL] | MIC [8] [µg/mL] | MIC [9] [µg/mL] | MIC [10] [µg/mL] | MIC [11] [µg/mL] | MIC [12] [µg/mL] |
| --- | --- | --- | --- | --- | --- | --- | --- | --- | --- | --- | --- | --- |
| Cc1cc(C)nc(N2CCN(c3ccc(NC(=O)C(=O)c4c(-c5ccccc5)ccn4CCO)cc3)CC2)c1 [Example 66, N-{4-[4-(4,6-Dimethyl-pyridin-2-yl)-piperazin-1-yl]-phenyl}-2-[1-(2-hydroxy-ethyl)-3-phenyl-1H-pyrrol-2-yl]-2-oxo-acetamide] | 1 to 10 (≈ 1.91 to 19.1 µM) | 1 to 10 (≈ 1.91 to 19.1 µM) | 1 to 10 (≈ 1.91 to 19.1 µM) | 1 to 10 (≈ 1.91 to 19.1 µM) | > 10 | > 10 | 1 to 10 (≈ 1.91 to 19.1 µM) | 1 to 10 (≈ 1.91 to 19.1 µM) | < 1 | < 1 | 1 to 10 (≈ 1.91 to 19.1 µM) | > 10 |
| Cc1cc(C)nc(N2CCN(c3ccc(NC(=O)C(=O)c4ccc(C)[nH]4)cc3)CC2)c1 [Example 4, N-{4-[4-(4,6-Dimethyl-pyridin-2-yl)-piperazin-1-yl]-phenyl}-2-(5-methyl-1H-pyrrol-2-yl)-2-oxo-acetamide] | > 10 | > 10 | > 10 | > 10 | > 10 | > 10 | 1 to 10 (≈ 2.4 to 24 µM) | > 10 | 1 to 10 (≈ 2.4 to 24 µM) | 1 to 10 (≈ 2.4 to 24 µM) | 1 to 10 (≈ 2.4 to 24 µM) | 1 to 10 (≈ 2.4 to 24 µM) |
| Cc1cc(C)nc(N2CCN(c3ccc(NC(=O)C(=O)c4c(-c5ccccc5)ccn4C)cc3)CC2)c1 [Example 45, N-{4-[4-(4,6-Dimethyl-pyridin-2-yl)-piperazin-1-yl]-phenyl}-2-(1-methyl-3-phenyl-1H-pyrrol-2-yl)-2-oxo-acetamide] | < 1 | < 1 | < 1 | < 1 | < 1 | < 1 | < 1 | < 1 | < 1 | < 1 | < 1 | < 1 |
| Cc1cc(-c2ccccc2)c(C(=O)C(=O)Nc2ccc(-c3ncco3)cc2F)n1C [Example 100, 2-(1,5-Dimethyl-3-phenyl-1H-pyrrol-2-yl)-N-[2-fluoro-4-oxazol-2-yl-phenyl)-2-oxo-acetamide] | 1 to 10 (≈ 2.48 to 24.8 µM) | < 1 | < 1 | < 1 | < 1 | < 1 | 1 to 10 (≈ 2.48 to 24.8 µM) | < 1 | < 1 | < 1 | < 1 | < 1 |
| CCCCn1c(C)cc(-c2ccccc2)c1C(=O)C(=O)Nc1ccc(N2CCN(c3cc(C)cc(C)n3)CC2)cc1 [Example 36, 2-(1-Butyl-5-methyl-3-phenyl-1H-pyrrol-2-yl)-N-{4-[4-(4,6-dimethyl-pyridin-2-yl)-piperazin-1-yl]-phenyl}-2-oxo-acetamide] | < 1 | < 1 | < 1 | < 1 | < 1 | < 1 | < 1 | < 1 | < 1 | < 1 | < 1 | < 1 |
| Cc1cc(C)nc(N2CCN(c3ccc(NC(=O)C(=O)c4c(-c5ccccc5)cc5n4CCN(C)C5)cc3)CC2)c1 [Example 5, N-{4-[4-(4,6-Dimethyl-pyridin-2-yl)-piperazin-1-yl]-phenyl}-2-(2-methyl-7-phenyl-1,2,3,4-tetrahydro-pyrrolo[1,2-a]pyrazin-6-yl)-2-oxo-acetamide] | 1 to 10 (≈ 1.82 to 18.2 µM) | < 1 | < 1 | 1 to 10 (≈ 1.82 to 18.2 µM) | 1 to 10 (≈ 1.82 to 18.2 µM) | 1 to 10 (≈ 1.82 to 18.2 µM) | < 1 | < 1 | < 1 | < 1 | 1 to 10 (≈ 1.82 to 18.2 µM) | 1 to 10 (≈ 1.82 to 18.2 µM) |
| Cc1cc(-c2ccccc2)c(C(=O)C(=O)Nc2cccc3ncccc23)n1C [Example 32, 2-(1,5-Dimethyl-3-phenyl-1H-pyrrol-2-yl)-2-oxo-N-quinolin-5-yl-acetamide] | > 10 | 1 to 10 (≈ 2.71 to 27.1 µM) | 1 to 10 (≈ 2.71 to 27.1 µM) | > 10 | 1 to 10 (≈ 2.71 to 27.1 µM) | 1 to 10 (≈ 2.71 to 27.1 µM) | 1 to 10 (≈ 2.71 to 27.1 µM) | < 1 | < 1 | 1 to 10 (≈ 2.71 to 27.1 µM) | < 1 | 1 to 10 (≈ 2.71 to 27.1 µM) |
| CCCOCn1c(C)cc(-c2ccccc2)c1C(=O)C(=O)Nc1ccc(N2CCN(c3cc(C)cc(C)n3)CC2)cc1 [Example 139, N-{4-[4-(4,6-Dimethyl-pyridin-2-yl)-piperazin-1-yl]-phenyl}-2-(5-methyl-3-phenyl-1-propoxymethyl-1H-pyrrol-2-yl)-2-oxo-acetamide] | 1 to 10 (≈ 1.77 to 17.7 µM) | 1 to 10 (≈ 1.77 to 17.7 µM) | 1 to 10 (≈ 1.77 to 17.7 µM) | 1 to 10 (≈ 1.77 to 17.7 µM) | > 10 | 1 to 10 (≈ 1.77 to 17.7 µM) | < 1 | 1 to 10 (≈ 1.77 to 17.7 µM) | < 1 | < 1 | 1 to 10 (≈ 1.77 to 17.7 µM) | < 1 |
| CCc1cc(-c2ccccc2)c(C(=O)C(=O)Nc2ccc(N3CCN(c4cc(C)cc(C)n4)CC3)cc2)n1C [Example 53, N-{4-[4-(4,6-Dimethyl-pyridin-2-yl)-piperazin-1-yl]-phenyl}-2-(5-ethyl-1-methyl-3-phenyl-1H-pyrrol-2-yl)-2-oxo-acetamide] | < 1 | < 1 | < 1 | < 1 | < 1 | < 1 | < 1 | < 1 | < 1 | < 1 | < 1 | < 1 |
| COCCOCn1c(C)cc(-c2ccccc2)c1C(=O)C(=O)Nc1ccc(N2CCN(c3cc(C)cc(C)n3)CC2)cc1 [Example 138, N-{4-[4-(4,6-Dimethyl-pyridin-2-yl)-piperazin-1-yl]-phenyl}-2-[1-(2-methoxy-ethoxymethyl)-5-methyl-3-phenyl-1H-pyrrol-2-yl]-2-oxo-acetamide] | < 1 | 1 to 10 (≈ 1.72 to 17.2 µM) | 1 to 10 (≈ 1.72 to 17.2 µM) | < 1 | 1 to 10 (≈ 1.72 to 17.2 µM) | 1 to 10 (≈ 1.72 to 17.2 µM) | < 1 | < 1 | < 1 | < 1 | 1 to 10 (≈ 1.72 to 17.2 µM) | < 1 |
| Cc1cc(-c2ccccc2)c(C(=O)C(=O)Nc2ccc(N3CCN(CC(C)(C)C)CC3)cc2F)n1C [Example 112, 2-(1,5-Dimethyl-3-phenyl-1H-pyrrol-2-yl)-N-{4-[4-(2,2-dimethyl-propyl)-piperazin-1-yl]-2-fluoro-phenyl}-2-oxo-acetamide] | < 1 | < 1 | < 1 | < 1 | < 1 | < 1 | < 1 | < 1 | < 1 | < 1 | < 1 | < 1 |
